Assay results reported in ChEMBL document CHEMBL5214890 (Eur J Med Chem, 2021).
The source made the active and inactive calls. The calls are words filed in the database; no cut-off is given here.

Assays:
[1] = Toxicity in male db/db mouse assessed as change in Cre at 100 nmol/kg, sc administered twice daily for 7 days; format: organism-based; conditions: in vivo, 168 h, time 7 day
Mus musculus [2] = test: Antidiabetic activity in non-fasted male db/db mouse assessed as reduction in glucose level at 10 to 100 nmol/kg, sc; format: functional, organism-based; conditions: dose 10-100 nmol/kg, DDE = dose-dependent effect
[3] = Toxicity in male DIO mouse assessed as reduction in body weight at 100 nmol/kg, sc administered twice daily for 7 days; format: organism-based; set-up: scale not given: the % may be the effect or the level left; conditions: in vivo, 168 h, time 7 day
[4] = Toxicity in male db/db mouse assessed as change in liver ALT level at 100 nmol/kg, sc administered twice daily for 7 days; format: organism-based; conditions: in vivo, 168 h, time 7 day
Mus musculus [5] = test: Antidiabetic activity in male […] assessed as improvement in glucose tolerance at 30 nmol/kg, sc administered twice daily for 3 weeks; format: functional, organism-based
[6] = AUC (infinity) in male Sprague-Dawley rat at 25 nmol/kg, iv administered as single dose and measured after 24 hrs by LC-MS/MS analysis; format: ADME, organism-based; set-up: time 24 hrs, dose 25 nmol/kg, route iv; conditions: in vivo
[7] = Toxicity in male DIO mouse assessed as change in serum lipase at 100 nmol/kg, sc administered twice daily for 7 days; format: organism-based; conditions: in vivo, 168 h, time 7 day
[8] = Toxicity in male DIO mouse assessed as change in liver ALT level at 100 nmol/kg, sc administered twice daily for 7 days; format: organism-based; conditions: in vivo, 168 h, time 7 day
Rattus norvegicus = test: Antidiabetic activity in overnight fasted male Sprague-Dawley rat assessed as reduction in food intake at 100 nmol/kg, ip; format: functional; set-up: scale not given: the % may be the effect or the level left
Mus musculus [9] = test: Antidiabetic activity in db/db mouse assessed as reduction in plasma insulin level at 10 nmol/kg, ip pretreated with compound and followed by glucose challenge and measured by oral glucose tolerance test; format: functional, organism-based
Mus musculus [10] = test: Antidiabetic activity in male […] assessed as decrease in serum LDL-C level at 30 nmol/kg, sc administered twice daily for 3 weeks; format: functional, organism-based
[11] = Toxicity in male db/db mouse assessed as change in Cre level at 30 nmol/kg, sc administered twice daily for 35 days; format: organism-based; conditions: in vivo, 840 h, time 35 day
[12] = Toxicity in male db/db mouse assessed as change in serum lipase at 100 nmol/kg, sc administered twice daily for 7 days; format: organism-based; conditions: in vivo, 168 h, time 7 day
Mus musculus [13] = test: Antidiabetic activity in 2 hrs fasted male C57BL/6J mouse at 10 to 30 nmol/kg, ip administered at 0 mins in presence of somatostatin at 10 mg/kg, sc administered at -30 mins and measured by oral glucose tolerance test; format: functional, organism-based; conditions: dose 10-30 nmol/kg
[14] = Toxicity in male DIO mouse assessed as change in BUN at 100 nmol/kg, sc administered twice daily for 7 days; format: organism-based; conditions: in vivo, 168 h, time 7 day
Mus musculus [15] = test: Antidiabetic activity in male […] assessed as decrease in serum triglycerides level at 30 nmol/kg, sc administered twice daily for 3 weeks; format: functional, organism-based
[16] = Half-life in male Sprague-Dawley rat at 25 nmol/kg, iv administered as single dose and measured after 24 hrs by LC-MS/MS analysis; format: ADME, organism-based; conditions: in vivo
Mus musculus [17] = test: Antidiabetic activity in male DIO mouse assessed as decrease in cumulative food intake at 100 nmol/kg, sc administered twice daily for 7 days; format: functional, organism-based; conditions: time 7.0 day
[18] = Toxicity in male db/db mouse assessed as change in liver ALT level at 30 nmol/kg, sc administered twice daily for 35 days; format: organism-based; conditions: in vivo, 840 h, time 35 day
Mus musculus [19] = test: Antidiabetic activity in db/db mouse assessed as reduction in blood glucose at 10 nmol/kg, ip pretreated with compound and followed by glucose challenge and measured by oral glucose tolerance test; format: functional, organism-based
[20] = Cmax in male Sprague-Dawley rat at 25 nmol/kg, sc administered as single dose and measured after 24 hrs by LC-MS/MS analysis; format: ADME, organism-based; set-up: time 24 hrs, dose 25 nmol/kg, route sc; conditions: in vivo
Mus musculus [21] = test: Antidiabetic activity in male db/db mouse assessed as increase in islet area at 30 nmol/kg, sc administered twice daily for 35 days; format: functional, organism-based; conditions: time 35.0 day
Mus musculus [22] = test: Antidiabetic activity in overnight fasted male C57BL/6J mouse at 10 nmol/kg, ip administered at -30 mins and measured by oral glucose tolerance test; format: functional, organism-based
[23] = Toxicity in male db/db mouse assessed as reduction in body weight at 100 nmol/kg, sc administered twice daily for 7 days; format: organism-based; conditions: in vivo, 168 h, time 7 day
Mus musculus [24] = test: Antidiabetic activity in male DIO mouse assessed as reduction in acute food intake at 10 nmol/kg, sc measured at 24 hrs post administration; format: functional, organism-based
Mus musculus [25] = test: Antidiabetic activity in male […] assessed as reduction in food intake at 30 nmol/kg, sc administered twice daily for 3 weeks; format: functional, organism-based

SMILES: CCCCCCCCCCCCCCCC(=O)N[C@@H](CCC(=O)NCCCC[C@H](NC(=O)[C@H](Cc1ccc(O)cc1)NC(=O)[C@H](CCCCN)NC(=O)[C@H](CO)NC(=O)[C@@H](NC(=O)[C@H](CC(=O)O)NC(=O)[C@H](CC(N)=O)NC(=O)[C@@H](NC(=O)[C@H](Cc1ccc(O)cc1)NC(=O)[C@@H](NC(=O)CNC(=O)[C@H](CCC(N)=O)NC(=O)[C@@H](CO)NC(=O)[C@@H](N)Cc1c[nH]cn1)[C@@H](C)O)[C@@H](C)O)C(C)C)C(=O)N[C@@H](CC(=O)O)C(=O)N[C@@H](CO)C(=O)N[C@@H](CCCNC(=N)N)C(=O)N[C@@H](CCCNC(=N)N)C(=O)N[C@@H](C)C(=O)N[C@@H](CCC(N)=O)C(=O)N[C@@H](CC(=O)O)C(=O)N[C@@H](Cc1ccccc1)C(=O)N[C@H](C(=O)N[C@@H](CCC(=O)O)C(=O)N[C@@H](Cc1c[nH]c2ccccc12)C(=O)N[C@@H](CC(C)C)C(=O)N[C@@H](CCCCN)C(=O)N[C@@H](CC(N)=O)C(=O)NCC(=O)NCC(=O)N1CCC[C@H]1C(=O)N[C@@H](CO)C(=O)N[C@@H](CO)C(=O)NCC(=O)N[C@@H](C)C(=O)N1CCC[C@H]1C(=O)N1CCC[C@H]1C(=O)N1CCC[C@H]1C(=O)N[C@@H](CO)C(N)=O)[C@@H](C)CC)C(=O)O
- Activity [1]: Non-Toxic
- Activity (Mus musculus [2]): Dde
- Activity [3]: 16.3%
- Activity [4]: Non-Toxic
- Activity (Mus musculus [5]): Active
- AUC(0-inf) [6]: 4200 ng·h/mL
- Activity [7]: Non-Toxic
- Activity [8]: Non-Toxic
- Activity (Rattus norvegicus): 29%
- Activity (Mus musculus [9]): Active
- Activity (Mus musculus [10]): Active
- Activity [11]: Non-Toxic
- Activity [12]: Non-Toxic
- Activity (Mus musculus [13]): Active
- Activity [14]: Non-Toxic
- Activity (Mus musculus [15]): Active
- half-life [16]: 2.6 h
- Activity (Mus musculus [17]): Active
- Activity [18]: Non-Toxic
- Activity (Mus musculus [19]): Active
- Cmax [20]: 519 ng/mL
- Activity (Mus musculus [21]): Active
- Activity (Mus musculus [22]): Active
- Activity [23]: Non-Toxic
- Activity (Mus musculus [24]): Active
- Activity (Mus musculus [25]): Active
